From PubChem BioAssay (NCI) come the findings set out here.

Assay in all cases: NCI-60 cell line screen, 48 h
The subject of experiment [1] is 786-0 renal.
The test system of experiment [2] is BT-549 breast.
Experiment [3] concerns EKVX NSCLC.
Experiment [4] deals with KM12 colon.
Experiment [5] deals with MOLT-4 leukemia.
For experiment [6], the system named is NCI-H460 lung.
Experiment [7] concerns PC-3 prostate.
Experiment [8] concerns SNB-19 CNS.
The test system of experiment [9] is T-47D breast.
Experiment [10] relates to UACC-62 melanoma.

Several values for one entry are separate records, joined by “and”; a condition that tells them apart may be missing. Equal entries are not always repeated.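 Protocol summary: plate cells (96-well), add compound at 5 concentrations, incubate 48 h, interpolate endpoints linearly. GI50: concentration for 50% inhibition of growth. TGI is the concentration that stops growth completely.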 Where only a bound is given, the exact number is not on record here.

As for `O=C1C(=O)c2ccccc2C(O)=C1CC=C(Cl)Cl`, the GI50 in experiment [1] was 4.63 µM and 13.4 µM; in experiment [2], 16.3 µM and 27.1 µM; in experiment [3] it was 13.4 µM; in experiment [4], 11.7 µM and 5.17 µM; in experiment [5] it was 0.828 µM and 4.68 µM; in experiment [6] it was 1.66 µM. Further, the GI50 in experiment [7] was 4.7 µM and 2.85 µM; in experiment [8], 7.46 µM and 9.74 µM; in experiment [9], 11 µM and 20.1 µM; in experiment [10], 6.1 µM and 8.42 µM. Moreover, the TGI is > 68.9 µM and 250 µM and > 100 µM in experiment [1]; 94.6 µM and 139 µM and > 100 µM in [2]; 57.1 µM and 206 µM in [3]; > 82.8 µM and 161 µM and > 100 µM in [4]; 27.1 µM and 103 µM and > 100 µM in experiment [5]; 49.8 µM and 79.1 µM and 25.5 µM in [6]. The TGI in experiment [7] is > 48.8 µM and 134 µM and 72.9 µM; in experiment [8], > 90.5 µM and 204 µM and > 100 µM; in experiment [9], 49.3 µM and 213 µM and > 100 µM; in [10] it was 40 µM and 81.7 µM and > 100 µM.
Take `COc1cc(NCc2ccccc2O)c2ncccc2c1`: the GI50 in experiment [1] is 29.8 µM; in experiment [2], 16.6 µM; in experiment [3], 19 µM; in [4] it was 22.5 µM; in [5], 18.9 µM; in [6], 15.8 µM. For the same molecule, the GI50 in experiment [7] was 10.6 µM; in [8], 31.8 µM; in experiment [9], 20.4 µM; in [10], 11.2 µM. For the same molecule, the TGI in [1] was more than 100 µM; in [2] it was 55 µM; in experiment [3], 80.8 µM; in experiment [4] it was more than 100 µM; in experiment [5], more than 100 µM; in experiment [6], more than 100 µM. In addition, the TGI is 90.6 µM in experiment [7], more than 100 µM in [8], more than 100 µM in [9] and 53.1 µM in [10].
